Our source for the IC50 values is EP4786451A1, “COMPOUND TARGETING INTEGRIN AND USE THEREOF IN RNAI AGENT” (YUN HO BIO CO., LTD, priority 2023, dated 2025).

One assay deals with Integrin αvβ5 Receptor (Homo sapiens, UniProt P06756+P18084). As to the kind of experiment: HTRF binding activity to integrin αvβ5 receptor (competition with Vitronectin). The settings on record: IC50 (nM) αvβ5, Table 4, different integrin receptors.
The target of a further assay is Integrin αvβ1 Receptor (Homo sapiens, UniProt P05556+P06756). The assay is described as follows: Fluorescence polarization (FP) binding activity to integrin αvβ1 receptor (competition with Cyclo[-RGDy-K(5-FAM)]). The settings on record: Table 4, different integrin receptors. (In general: Fluorescence polarisation rises when a labelled molecule tumbles more slowly, as on binding a larger partner.)
Chain of Integrin αvβ1 Receptor (P06756 31-992 limits assumed): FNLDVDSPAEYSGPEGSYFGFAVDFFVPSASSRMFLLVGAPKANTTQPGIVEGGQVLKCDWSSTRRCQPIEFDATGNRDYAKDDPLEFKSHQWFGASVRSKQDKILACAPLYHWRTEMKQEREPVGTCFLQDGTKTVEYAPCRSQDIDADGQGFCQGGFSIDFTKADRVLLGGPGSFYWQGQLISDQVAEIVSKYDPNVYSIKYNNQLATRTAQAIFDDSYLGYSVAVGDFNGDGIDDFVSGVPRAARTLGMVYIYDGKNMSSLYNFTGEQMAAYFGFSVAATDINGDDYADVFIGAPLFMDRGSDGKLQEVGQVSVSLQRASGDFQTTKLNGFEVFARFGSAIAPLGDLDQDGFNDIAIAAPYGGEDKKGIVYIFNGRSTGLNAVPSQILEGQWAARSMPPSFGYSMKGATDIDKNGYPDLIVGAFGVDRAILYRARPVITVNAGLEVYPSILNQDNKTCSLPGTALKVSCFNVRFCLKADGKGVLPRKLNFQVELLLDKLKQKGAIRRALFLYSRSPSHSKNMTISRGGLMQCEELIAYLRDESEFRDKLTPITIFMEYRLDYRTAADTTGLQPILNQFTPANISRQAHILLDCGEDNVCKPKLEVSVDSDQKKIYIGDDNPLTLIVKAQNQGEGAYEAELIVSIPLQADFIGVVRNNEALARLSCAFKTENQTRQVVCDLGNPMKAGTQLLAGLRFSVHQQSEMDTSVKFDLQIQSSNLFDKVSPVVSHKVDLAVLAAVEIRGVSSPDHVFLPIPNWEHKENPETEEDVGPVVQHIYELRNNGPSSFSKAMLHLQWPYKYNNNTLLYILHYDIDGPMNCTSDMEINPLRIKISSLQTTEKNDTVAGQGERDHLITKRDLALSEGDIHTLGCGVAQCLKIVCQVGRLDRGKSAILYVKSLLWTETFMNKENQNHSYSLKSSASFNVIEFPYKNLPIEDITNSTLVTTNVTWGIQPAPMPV
Chain of Integrin αvβ1 Receptor (P05556 21-728 limits assumed): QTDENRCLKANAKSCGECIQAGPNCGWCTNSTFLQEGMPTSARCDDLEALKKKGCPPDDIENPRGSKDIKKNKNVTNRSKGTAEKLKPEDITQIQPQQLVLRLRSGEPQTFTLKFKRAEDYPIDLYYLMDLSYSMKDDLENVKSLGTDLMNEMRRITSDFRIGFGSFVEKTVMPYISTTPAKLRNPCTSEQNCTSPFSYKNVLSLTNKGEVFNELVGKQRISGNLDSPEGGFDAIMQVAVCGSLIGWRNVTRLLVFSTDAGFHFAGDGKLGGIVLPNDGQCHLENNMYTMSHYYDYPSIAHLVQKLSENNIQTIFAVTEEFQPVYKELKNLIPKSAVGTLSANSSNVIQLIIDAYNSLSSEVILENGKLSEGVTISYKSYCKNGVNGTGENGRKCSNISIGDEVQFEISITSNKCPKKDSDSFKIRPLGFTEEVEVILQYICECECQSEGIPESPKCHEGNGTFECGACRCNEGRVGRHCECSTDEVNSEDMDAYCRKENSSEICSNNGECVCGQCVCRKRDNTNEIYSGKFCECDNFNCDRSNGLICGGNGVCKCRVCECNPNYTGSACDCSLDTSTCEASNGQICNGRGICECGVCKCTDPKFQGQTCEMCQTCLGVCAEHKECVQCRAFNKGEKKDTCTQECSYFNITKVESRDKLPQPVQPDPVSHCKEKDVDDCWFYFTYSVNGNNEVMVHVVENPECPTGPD

In the next assay the target is Integrin αvβ6 Receptor (Homo sapiens, UniProt P06756+P18564). As to the kind of experiment: HTRF binding activity to integrin αvβ6 receptor (competition with LAP (TGF-beta 1)). Conditions: for pIC50: Integrin αvβ6, HTRF, Table 3, several runs, each with Cilengitide and 1 as references, read-out: IC50; for IC50: Table 4, different integrin receptors, read-out: IC50 (nM) αvβ6. How it is done:
Main Experimental Reagents and Consumables
Inhibition rate and fit IC50 was calculated using Excel and XL-Fit respectively, formula as follows: Inhibition % = (Max−Signal)/(Max−Min)*100 [formula] Y = Bottom + (Top−Bottom)/(1+(IC50/X)[…]), [formula] Y and X represent %inhibition and compound concentration respectively

Molecules are shown by their SMILES. pIC50: −log10 of the molar value. Read-outs that look alike come from different tables or passages of the source.

Chain of Integrin αvβ6 Receptor (P06756 31-992 limits assumed): as the sequence (P06756 31-992 limits assumed) above
Chain of Integrin αvβ6 Receptor (P18564 22-707 limits assumed): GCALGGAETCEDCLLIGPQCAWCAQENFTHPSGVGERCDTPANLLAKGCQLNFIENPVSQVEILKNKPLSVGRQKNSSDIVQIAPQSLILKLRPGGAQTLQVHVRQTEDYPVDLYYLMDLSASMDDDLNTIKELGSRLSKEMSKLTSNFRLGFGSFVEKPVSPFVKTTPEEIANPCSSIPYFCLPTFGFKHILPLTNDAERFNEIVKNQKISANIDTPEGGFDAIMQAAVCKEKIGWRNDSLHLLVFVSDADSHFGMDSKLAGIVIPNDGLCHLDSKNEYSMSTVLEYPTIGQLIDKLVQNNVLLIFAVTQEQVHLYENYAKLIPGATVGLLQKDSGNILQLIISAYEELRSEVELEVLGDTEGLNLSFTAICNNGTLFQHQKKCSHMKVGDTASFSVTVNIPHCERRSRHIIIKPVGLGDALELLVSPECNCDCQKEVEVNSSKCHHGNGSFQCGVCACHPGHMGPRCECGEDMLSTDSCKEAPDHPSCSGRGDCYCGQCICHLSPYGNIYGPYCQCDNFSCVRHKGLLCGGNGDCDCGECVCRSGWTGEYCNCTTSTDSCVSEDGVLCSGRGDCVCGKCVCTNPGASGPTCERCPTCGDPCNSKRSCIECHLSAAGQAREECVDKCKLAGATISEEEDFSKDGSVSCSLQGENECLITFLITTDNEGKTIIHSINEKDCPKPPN
Chain of Integrin αvβ5 Receptor (P06756 31-992 limits assumed): as the sequence (P06756 31-992 limits assumed) above
Chain of Integrin αvβ5 Receptor (P18084 24-719 limits assumed): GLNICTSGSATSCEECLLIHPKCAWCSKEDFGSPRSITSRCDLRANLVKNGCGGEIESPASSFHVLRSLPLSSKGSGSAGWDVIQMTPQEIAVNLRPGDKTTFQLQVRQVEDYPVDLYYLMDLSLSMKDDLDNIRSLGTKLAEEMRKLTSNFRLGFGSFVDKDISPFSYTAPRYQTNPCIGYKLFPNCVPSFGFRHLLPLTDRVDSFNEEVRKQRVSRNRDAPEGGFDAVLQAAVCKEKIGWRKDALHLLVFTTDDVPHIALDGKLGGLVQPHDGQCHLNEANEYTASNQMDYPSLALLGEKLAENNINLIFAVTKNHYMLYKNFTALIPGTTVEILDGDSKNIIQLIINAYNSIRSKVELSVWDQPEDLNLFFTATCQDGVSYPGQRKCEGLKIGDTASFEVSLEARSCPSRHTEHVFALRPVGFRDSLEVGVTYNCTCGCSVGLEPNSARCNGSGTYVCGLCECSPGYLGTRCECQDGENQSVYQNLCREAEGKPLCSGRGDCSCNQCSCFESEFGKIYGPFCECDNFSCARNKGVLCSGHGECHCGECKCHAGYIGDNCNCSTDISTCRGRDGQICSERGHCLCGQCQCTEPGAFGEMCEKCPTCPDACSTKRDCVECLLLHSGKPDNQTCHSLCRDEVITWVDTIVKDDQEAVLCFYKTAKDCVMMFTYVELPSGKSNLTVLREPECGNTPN
Method for Integrin αvβ5 Receptor: B. Evaluation of Compound Binding Activity to Integrin αvβ5 Receptor using Homogeneous Time-Resolved Fluorescence (HTRF) Technology
Compound Preparation: Same as A.
Reagent Preparation: Assay buffer was prepared.
Then 5 µL of integrin receptor protein αvβ5 was added (5 µL of assay buffer was added for negative control), incubated at room temperature for 20 minutes. Next, 5 µL of ligand protein VTN, and 10 µL of the SA-Tb and Anti-His XL665 mixture were added respectively, incubated at room temperature for 1 hour.

What is called IC50 is the concentration that gives 50% inhibition. As usually defined, the pIC50 is the negative decadic logarithm of the IC50, by convention in mol/L. With `[N-]=[N+]=NCCOCCOCCOCCOCCOc1ccc([C@H](CC(=O)O)CN2CC[C@@H](CCc3ccc4c(n3)NCCC4)C2)cc1` (single isomer, unassigned) [Compound 20-P1], the results for the IC50 on Integrin αvβ5 Receptor, at Integrin αvβ1 Receptor and at Integrin αvβ6 Receptor were 0.7 nM, 8.1 nM and 3.7 nM, respectively. The pIC50 at Integrin αvβ6 Receptor was 8.43.

Turning to `[N-]=[N+]=NCCOCCOCCOCCOCCOc1cccc([C@H](CC(=O)O)CN2CC[C@@H](CCc3ccc4c(n3)NCCC4)C2)c1` (single isomer, unassigned) [Compound 18-P1], the IC50 on Integrin αvβ5 Receptor was determined as 0.6 nM; at Integrin αvβ1 Receptor, 9.1 nM; at Integrin αvβ6 Receptor it was 3.2 nM. Besides, the pIC50 at Integrin αvβ6 Receptor was 8.49.
